The source of these data is US20260274891A1, “¿ OPIOID RECEPTOR AGONIST AND USE THEREOF” (CHENGDU AODA BIOTECHNOLOGY CO., LTD., priority 2023, published 2026).

Square brackets hold non-standard residues; d marks the D form. Peptide text beside a SMILES is read from it. * marks the point of attachment. X10 = NCCCC[C@@H](NC(=O)C1(N)CCN(*)CC1)C(=O)O; X1 = NCCCC[C@@H](NC(=O)C1(N)CCN(*)CC1)C(N)=O; X4 = NCCCC[C@H](NC(=O)C1(N)CCN(*)CC1)C(=O)O; iPr = CC(C)*

In this assay the target is T1, human κ opioid receptor (OPRK1) (Homo sapiens, UniProt P41145).
T1 construct: expressed in transfected cells; host or cells: CHO-K1
T1 sequence (P41145 whole entry): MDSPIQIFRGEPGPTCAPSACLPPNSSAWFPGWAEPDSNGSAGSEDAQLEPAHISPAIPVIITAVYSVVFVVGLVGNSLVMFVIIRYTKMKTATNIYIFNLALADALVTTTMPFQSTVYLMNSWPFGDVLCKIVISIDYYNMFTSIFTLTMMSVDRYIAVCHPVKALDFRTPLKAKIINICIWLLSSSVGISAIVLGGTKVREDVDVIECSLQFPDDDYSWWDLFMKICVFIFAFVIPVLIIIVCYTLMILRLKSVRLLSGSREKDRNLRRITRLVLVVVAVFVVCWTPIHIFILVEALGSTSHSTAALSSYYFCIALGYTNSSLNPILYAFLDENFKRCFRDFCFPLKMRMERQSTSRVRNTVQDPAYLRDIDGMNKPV
Description: Determination of activities of κ receptor agonists: inhibition of forskolin-stimulated cAMP release (HTRF) in stably transfected CHO-K1 cells. The class given is cell-based. Conditions: for Relative Activity %: relative to Difelikefalin = 100.0. The source says: Gi-coupled human κ opioid receptor (OPRK1), upon stimulation with its specific opioid receptor agonists, can inhibit the intracellular adenylate cyclase pathway, and decrease cAMP levels. Forskolin can stimulate cAMP release in cell lines highly expressing opioid receptors. By stimulating cell lines stably transfected with opioid receptors, the inhibitory effect of a test compound on forskolin-stimulated cAMP release can be measured to determine the activity of the compound. The relative light units (RLU) from the cells after stimulation with different doses were measured via the homogeneous time-resolved fluorescence technique (HTRF), and the EC50 value of the agonist was subsequently calculated. This activity determination method is a currently commonly used method for determining the activities of opioid receptor agonists at home and abroad.
A CHO-K1 cell line stably expressing opioid receptors was used. Stably transfected cells were stimulated with various concentrations of agonists (under the stimulation of a certain concentration of forskolin). The relative light units from the cells after stimulation with different doses were measured, from which the EC50 value of the agonist was subsequently obtained by calculation.

With `CC(C)C[C@@H](NC(=O)[C@@H](Cc1ccc(OC(C)C)cc1)NC(=O)[C@H](N)Cc1ccccc1)C(=O)N[C@H](CCCCN)C(=O)N1CCC(N)(C(=O)N[C@@H](CCCCN)C(=O)O)CC1` [Compound 100, D-Phe-D-Tyr(Ipr)-D-Leu-D-Lys-4-aminopiperidine-4-carboxamide-Lys-OH] (H-[dF][dY](iPr)[dL][dK]-X4; N-terminus assumed), the EC50 is 0.0716 nM and the “Relative Activity %” value is listed as 848.0%.

Consider `CC(C)C[C@@H](NC(=O)[C@@H](Cc1ccc(OC(C)C)cc1)NC(=O)[C@H](N)Cc1ccccc1)C(=O)N[C@H](CCCCN)C(=O)N1CCC(N)(C(=O)N[C@H](CCCCN)C(N)=O)CC1` [Compound 101, D-Phe-D-Tyr(Ipr)-D-Leu-D-Lys-4-aminopiperidine-4-carboxamide-D-Lys-NH2] (H-[dF][dY](iPr)[dL][dK]-X1; N-terminus assumed), for which the EC50 was determined as 0.0728 nM and the “Relative Activity %” value is 834.1%.

Regarding `CC(C)C[C@@H](NC(=O)[C@@H](Cc1ccc(OC(C)C)cc1)NC(=O)[C@H](N)Cc1ccccc1)C(=O)N[C@H](CCCCN)C(=O)N1CCC(N)(C(=O)N[C@H](CCCCN)C(=O)O)CC1` [Compound 102, D-Phe-D-Tyr(Ipr)-D-Leu-D-Lys-4-aminopiperidine-4-carboxamide-D-Lys-OH] (H-[dF][dY](iPr)[dL][dK]-X10; N-terminus assumed), the response was half-maximal at 0.073 nM (EC50) and the “Relative Activity %” value came out at 831.8%.

`CC(C)C[C@@H](NC(=O)[C@@H](Cc1ccc(F)cc1)NC(=O)[C@H](N)Cc1ccccc1)C(=O)N[C@H](CCCCN)C(=O)N1CCC(N)(C(=O)O)CC1` [Compound 104, D-Phe-D-Phe(4-F)-D-Leu-D-Lys-4-aminopiperidine-4-carboxamide-OH]: it took 0.215 nM to reach a half-maximal effect (EC50) and the “Relative Activity %” value amounted to 281.9%.

On to `CC(C)C[C@@H](NC(=O)[C@@H](Cc1ccc(F)cc1)NC(=O)[C@H](N)Cc1ccccc1)C(=O)N[C@H](CCCCN)C(=O)N1CCC(N)(C(=O)N[C@@H](CCCCN)C(N)=O)CC1` [Compound 105, D-Phe-D-Phe(4-F)-D-Leu-D-Lys-4-aminopiperidine-4-carboxamide-Lys-NH2], for which the EC50 came to 0.0796 nM and the “Relative Activity %” value turned out to be 762.8%.

As to `CC(C)C[C@@H](NC(=O)[C@@H](Cc1ccc(Cl)cc1)NC(=O)[C@H](N)Cc1ccccc1)C(=O)N[C@H](CCCCN)C(=O)N1CCC(N)(C(=O)O)CC1` [Compound 110, D-Phe-D-Phe(4-C1)-D-Leu-D-Lys-4-aminopiperidine-4-carboxamide-OH], the half-maximal effective concentration (EC50) stood at 0.149 nM and the “Relative Activity %” value turned out to be 408.6%.

Take `CC(C)C[C@@H](NC(=O)[C@@H](Cc1ccc(Cl)cc1)NC(=O)[C@H](N)Cc1ccccc1)C(=O)N[C@H](CCCCN)C(=O)N1CCC(N)(C(=O)N[C@@H](CCCCN)C(N)=O)CC1` [Compound 111, D-Phe-D-Phe(4-C1)-D-Leu-D-Lys-4-aminopiperidine-4-carboxamide-Lys-NH2]: the EC50 worked out at 0.0521 nM and the “Relative Activity %” value is 1165.5%.

Turning to `CC(C)C[C@@H](NC(=O)[C@@H](Cc1ccc(Cl)cc1)NC(=O)[C@H](N)Cc1ccccc1)C(=O)N[C@H](CCCCN)C(=O)N1CCC(N)(C(=O)N[C@@H](CCCCN)C(=O)O)CC1` [Compound 112, D-Phe-D-Phe(4-C1)-D-Leu-D-Lys-4-aminopiperidine-4-carboxamide-Lys-OH], the midpoint of the response, the EC50, lay at 0.0508 nM and the “Relative Activity %” value worked out at 1195.3%.

For `CC(C)C[C@@H](NC(=O)[C@@H](Cc1ccc(Cl)cc1)NC(=O)[C@H](N)Cc1ccccc1)C(=O)N[C@H](CCCCN)C(=O)N1CCC(N)(C(=O)N[C@H](CCCCN)C(=O)O)CC1` [Compound 114, D-Phe-D-Phe(4-C1)-D-Leu-D-Lys-4-aminopiperidine-4-carboxamide-D-Lys-OH], the response was half-maximal at 0.0515 nM (EC50) and the “Relative Activity %” value amounted to 1179.0%.

For the compound `CC(C)C[C@@H](NC(=O)[C@@H](Cc1ccc(Br)cc1)NC(=O)[C@H](N)Cc1ccccc1)C(=O)N[C@H](CCCCN)C(=O)N1CCC(N)(C(=O)O)CC1` [Compound 116, D-Phe-D-Phe(4-Br)-D-Leu-D-Lys-4-aminopiperidine-4-carboxamide-OH], the EC50 was 0.136 nM and the “Relative Activity %” value came to 448.1%.

As for `CC(C)C[C@@H](NC(=O)[C@@H](Cc1ccc(Br)cc1)NC(=O)[C@H](N)Cc1ccccc1)C(=O)N[C@H](CCCCN)C(=O)N1CCC(N)(C(=O)N[C@@H](CCCCN)C(=O)O)CC1` [Compound 118, D-Phe-D-Phe(4-Br)-D-Leu-D-Lys-4-aminopiperidine-4-carboxamide-Lys-OH], a half-maximal response (EC50) required 0.0638 nM and the “Relative Activity %” value worked out at 951.7%.

`CC(C)C[C@@H](NC(=O)[C@@H](Cc1ccc(Br)cc1)NC(=O)[C@H](N)Cc1ccccc1)C(=O)N[C@H](CCCCN)C(=O)N1CCC(N)(C(=O)N[C@H](CCCCN)C(N)=O)CC1` [Compound 119, D-Phe-D-Phe(4-Br)-D-Leu-D-Lys-4-aminopiperidine-4-carboxamide-D-Lys-NH2]: the EC50 stood at 0.0615 nM and the “Relative Activity %” value turned out to be 987.3%.

As to `CC(C)C[C@@H](NC(=O)[C@@H](Cc1ccc(I)cc1)NC(=O)[C@H](N)Cc1ccccc1)C(=O)N[C@H](CCCCN)C(=O)N1CCC(N)(C(N)=O)CC1` [Compound 121, D-Phe-D-Phe(4-I)-D-Leu-D-Lys-4-aminopiperidine-4-carboxamide-NH2], the concentration for a half-maximal effect (EC50) amounted to 0.122 nM and the “Relative Activity %” value is 496.1%.

In the case of `CC(C)C[C@@H](NC(=O)[C@@H](Cc1ccc(I)cc1)NC(=O)[C@H](N)Cc1ccccc1)C(=O)N[C@H](CCCCN)C(=O)N1CCC(N)(C(=O)O)CC1` [Compound 122, D-Phe-D-Phe(4-I)-D-Leu-D-Lys-4-aminopiperidine-4-carboxamide-OH], the EC50 came to 0.12 nM and the “Relative Activity %” value is on record as 505.6%.

As to `CC(C)C[C@@H](NC(=O)[C@@H](Cc1ccc(I)cc1)NC(=O)[C@H](N)Cc1ccccc1)C(=O)N[C@H](CCCCN)C(=O)N1CCC(N)(C(=O)N[C@@H](CCCCN)C(N)=O)CC1` [Compound 123, D-Phe-D-Phe(4-I)-D-Leu-D-Lys-4-aminopiperidine-4-carboxamide-Lys-NH2], the concentration giving a half-maximal response (EC50) turned out to be 0.0535 nM and the “Relative Activity %” value is listed as 1135.0%.

Regarding `CC(C)C[C@@H](NC(=O)[C@@H](Cc1ccc(I)cc1)NC(=O)[C@H](N)Cc1ccccc1)C(=O)N[C@H](CCCCN)C(=O)N1CCC(N)(C(=O)N[C@@H](CCCCN)C(=O)O)CC1` [Compound 124, D-Phe-D-Phe(4-I)-D-Leu-D-Lys-4-aminopiperidine-4-carboxamide-Lys-OH], the EC50 was 0.0558 nM and the “Relative Activity %” value turned out to be 1088.2%.

On to `CC(C)C[C@@H](NC(=O)[C@@H](Cc1ccc(I)cc1)NC(=O)[C@H](N)Cc1ccccc1)C(=O)N[C@H](CCCCN)C(=O)N1CCC(N)(C(=O)N[C@H](CCCCN)C(N)=O)CC1` [Compound 125, D-Phe-D-Phe(4-I)-D-Leu-D-Lys-4-aminopiperidine-4-carboxamide-D-Lys-NH2], for which the EC50 is 0.055 nM and the “Relative Activity %” value worked out at 1104.0%.

With `Cc1ccc(C[C@@H](NC(=O)[C@H](N)Cc2ccccc2)C(=O)N[C@H](CC(C)C)C(=O)N[C@H](CCCCN)C(=O)N2CCC(N)(C(=O)N[C@@H](CCCCN)C(N)=O)CC2)cc1` [Compound 127, D-Phe-D-Phe(4-Me)-D-Leu-D-Lys-4-aminopiperidine-4-carboxamide-Lys-NH2], a half-maximal effect (EC50) was put at 0.157 nM and the “Relative Activity %” value is on record as 385.8%.

With `Cc1ccc(C[C@@H](NC(=O)[C@H](N)Cc2ccccc2)C(=O)N[C@H](CC(C)C)C(=O)N[C@H](CCCCN)C(=O)N2CCC(N)(C(=O)N[C@@H](CCCCN)C(=O)O)CC2)cc1` [Compound 128, D-Phe-D-Phe(4-Me)-D-Leu-D-Lys-4-aminopiperidine-4-carboxamide-Lys-OH], the EC50 amounted to 0.16 nM and the “Relative Activity %” value amounted to 380.2%.

Turning to `CCc1ccc(C[C@@H](NC(=O)[C@H](N)Cc2ccccc2)C(=O)N[C@H](CC(C)C)C(=O)N[C@H](CCCCN)C(=O)N2CCC(N)(C(=O)N[C@@H](CCCCN)C(N)=O)CC2)cc1` [Compound 131, D-Phe-D-Phe(4-Et)-D-Leu-D-Lys-4-aminopiperidine-4-carboxamide-Lys-NH2], a half-maximal effect (EC50) was put at 0.134 nM and the “Relative Activity %” value came out at 454.5%.

On to `CCc1ccc(C[C@@H](NC(=O)[C@H](N)Cc2ccccc2)C(=O)N[C@H](CC(C)C)C(=O)N[C@H](CCCCN)C(=O)N2CCC(N)(C(=O)N[C@@H](CCCCN)C(=O)O)CC2)cc1` [Compound 132, D-Phe-D-Phe(4-Et)-D-Leu-D-Lys-4-aminopiperidine-4-carboxamide-Lys-OH], for which the EC50 was 0.13 nM and the “Relative Activity %” value is 465.6%.

Consider `CCc1ccc(C[C@@H](NC(=O)[C@H](N)Cc2ccccc2)C(=O)N[C@H](CC(C)C)C(=O)N[C@H](CCCCN)C(=O)N2CCC(N)(C(=O)N[C@H](CCCCN)C(N)=O)CC2)cc1` [Compound 133, D-Phe-D-Phe(4-Et)-D-Leu-D-Lys-4-aminopiperidine-4-carboxamide-D-Lys-NH2], for which the EC50 is 0.132 nM and the “Relative Activity %” value turned out to be 461.7%.

`CCc1ccc(C[C@@H](NC(=O)[C@H](N)Cc2ccccc2)C(=O)N[C@H](CC(C)C)C(=O)N[C@H](CCCCN)C(=O)N2CCC(N)(C(=O)N[C@H](CCCCN)C(=O)O)CC2)cc1` [Compound 134, D-Phe-D-Phe(4-Et)-D-Leu-D-Lys-4-aminopiperidine-4-carboxamide-D-Lys-OH]: the EC50 is 0.133 nM and the “Relative Activity %” value came to 457.6%.
